From paper PMC12057046, “Elucidation of short linear motif-based interactions of the MIT and rhodanese domains of the ubiquitin-specific protease 8” (Biology Direct, 2025)

Experiments:
USP8 Rhod domain = biological target: T1, USP8 Rhod domain (Homo sapiens, UniProt P40818); test: SPOT array of predicted peptides from known interactors, USP8 Rhod domain; format: binding; settings: for Percentage (%) normalized to highest intensity and corrected for background: Rhod-Peptide screening, SPOT array of predicted peptides, KIAA1614 positive control = 100; for SPOT intensity in words: GST-tagged Rhod 150 µM, positive control KIAA1614_568 − 583, array of 42 predicted peptides
T1 construct: USP8 Rhod (174–317) (UniProt: P40818); GST (cleaved yes); made in house; host or cells: Escherichia coli BL21-Gold (DE3)
T1 sequence (P40818 174-317): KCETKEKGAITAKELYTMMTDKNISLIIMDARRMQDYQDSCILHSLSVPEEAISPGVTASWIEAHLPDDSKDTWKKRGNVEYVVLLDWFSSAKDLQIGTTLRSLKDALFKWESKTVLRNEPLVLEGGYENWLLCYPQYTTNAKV
Description: The results therefore support that the USP8 Rhod domain binds to two distinct types of motifs (Fig. 4A, B). We used the motifs to scan for matching motifs in previously reported interactors using the SLiMSearch algorithm (Supplementary Table S8 A). As there was no clear match for the TET3-type motif except from only one hit, we focused on the KIAA1614-type motif. […] Both TP63 and USP21 are previously reported USP8 substrates, and the interactions may potentially contribute to substrate targeting. […] As the SHANK3 peptides (351-[…]−365 and 392-[…]−406) are closely located in the primary structure of SHANK3, it is tempting to speculate that both motifs contribute to the interactions between the full-length proteins by increasing the local concentration of binding motifs. […] Taken together, we find that the USP8 Rhod domain is a peptide binding domain that can be bound by peptides of two distinct types of motifs, with the Rx[LI]xGxxxPxxL motif and variants thereof being found in known USP8 substrates.
SPOT array alanine scanning of peptides was designed, and cellulose-bound peptides were synthesized using Fluorenylmethyloxycarbonyl (Fmoc) solid phase synthesis with a MultiPep synthesizer (INTAVIS Peptide Services, Tübingen, Germany). The membranes of predicted peptides were purchased by JPT Peptide Technologies (Berlin, Germany). The membranes were incubated with blocking buffer containing 5% skim milk in TBST (50 mM Tris, 150 mM NaCl pH 7.5, 0.05% Tween-20) for two hours at room temperature. The blocked membranes were incubated with GST-tagged proteins (100 µM for MIT domain and 150 µM for the Rhodanese domain) in blocking buffer overnight at 4 °C. After rinsed with TBST the membranes were incubated with HRP-conjugated anti-GST antibody (Cytiva, RPN1236; 1:3000 dilution) in blocking buffer for 1 h at 4 °C and subsequently rinsed with TBST to remove any excess antibody. The ECL reagent (Clarity Max Western ECL substrate, 1705062, BioRad) was used for chemiluminescence read-out with the ChemiDoc Imaging system (BioRad). The images were analysed with Fiji (ImageJ2 version 2.9.0). SLiMSearch4 was used to design the peptide arrays with known interactors predicted to contain the motifs. The background signal intensity was subtracted, and the corrected signal intensities were normalized to the positive control and presented as percentage.

USP8 MIT domain [1] = test: SPOT array of predicted peptides from known interactors, USP8 MIT domain; format: binding, human
Description: To further assess the SLiM-based interactions of the USP8 MIT domain, we designed a peptide array tiling 24 potential binding sites in previously reported USP8 interactors. We used SLiMSearch to search for peptides that contain shorter or longer matches to the motif (Supplementary Table S4A). […] The DNAJB6_118 - 130 peptide was predicted as a binder based on a partial DFx{2,3}R motif. The DNAJB6-USP8 interaction is supported by previous GST-pulldown experiments and colocalization of the two proteins in male mouse germ cells, and the interaction is thought to be of importance to the protein quality control to yield functional spermatozoa. In the case of the CDH1_863 - 877 peptide it was predicted as USP8 MIT ligand based on the presence of an RFxxL motif. The previous support of the CDH1-USP8 interaction is based on proximity labelling mass spectrometry, and our results thus provide evidence for a binary interaction between the two proteins and define a binding site. To confirm that the motifs used to predict the interactions were of importance for binding we designed an alanine scanning peptide SPOT array analysis of the DNAJB6_118 - 130 and the CDH1_863 - 877 peptides. […] In summary, we find that the USP8 MIT domain binds to a MIM1-like motif that can be expressed by [[…]], as well as degenerate variants thereof. […] The membranes of predicted peptides were purchased by JPT Peptide Technologies (Berlin, Germany). The membranes were incubated with blocking buffer containing 5% skim milk in TBST (50 mM Tris, 150 mM NaCl pH 7.5, 0.05% Tween-20) for two hours at room temperature. The blocked membranes were incubated with GST-tagged proteins (100 μM for MIT domain and 150 μM for the Rhodanese domain) in blocking buffer overnight at 4 °C. After rinsed with TBST the membranes were incubated with HRP-conjugated anti-GST antibody (Cytiva, RPN1236; 1:3000 dilution) in blocking buffer for 1 h at 4 °C and subsequently rinsed with TBST to remove any excess antibody. The ECL reagent (Clarity Max Western ECL substrate, 1705062, BioRad) was used for chemiluminescence read-out with the ChemiDoc Imaging system (BioRad). The images were analysed with Fiji (ImageJ2 version 2.9.0). […] used to design the peptide arrays with known interactors predicted to contain the motifs. The background signal intensity was subtracted, and the corrected signal intensities were normalized to the positive control and presented as percentage.

USP8 MIT domain [2] = test: Proteomic peptide-phage display (ProP-PD) selection against USP8 MIT domain; format: binding, human; parameters: Confidence: scale not given here
Procedure: We explored the peptide-binding of the USP8 MIT domain by using the purified GST-tagged MIT domain as bait in proteomic peptide-phage display (ProP-PD) selections and a library designed to display the predicted unstructured regions of the human proteome. The peptide-coding regions of the binding-enriched phage pools were analysed by next-generation sequencing (NGS). After filtering for high confidence ligands, ten ligands remained (Fig. 1B; Supplementary Table S1). None of the ten identified protein-protein interactions had been previously reported, based on comparison with the information available in IntAct, HIPPIE and BioGrid (February 2025). Of the USP8 interacting proteins found, the D site-binding protein (DBP), which is a clock-controlled transcription factor, appears as an interesting ligand as USP8 has been reported to be involved in controlling the circadian rhythm. Also, the CCDC88A-encoded protein Girdin is an interactor of potential biological relevance as it is a scaffolding protein involved in the EGFR pathway which USP8 is known to regulate. At the motif level, there was no shared consensus motif among the ten peptide ligands. However, by manual inspection we noticed that four of the peptides contained a shared [LI]xxR[IY]xxL sequence, which appears to be a variation of the [DE]xxLxxRLxxL[KR] MIM1 motif described in the Eukaryotic Linear Motif resource (ELM) (Fig. 1B). We performed a SPOT array alanine scanning analysis in which peptides are synthesised on a membrane, and where each amino acid position of the peptide is mutated to alanine (or glycine if alanine is in the wild type peptide) to evaluate the effect of the amino acid residues in binding. We tested two peptides containing the apparent MIM1-like motif, one from Girdin (Girdin1192 − 1207) and one from the histone-lysine N-methyltransferase SETD1B (SETD1B492 − 507). […] AlphaFold3 (AF3) modelling of the four peptides with the variant MIM1 motif and the MIT domain docked the peptides with high confidence (ipTM scores: HIVEP1_741 − 756: 0.87, Girdin1192 − 1207: 0.85, MLPH481 − 496: 0.82, SETD1B492 − 507: 0.75) at the expected MIM1 binding pocket (Fig. 1D). […] However, the USP8 MIT selection was dominated (more than 94% of NGS counts) by two peptides that lack an apparent MIM1 motif. The two peptides were from the EF-hand calcium-binding domain-containing protein 12 (EFCAB12_1 − 16: […]) and from DBP (DBP116 − 131: […]) (Fig. 1B). […] In comparison to this, the EFCAB12_1 − 16 peptide shares a potential Dx[YF]xxxH[SG] motif with the DBP116 − 131 (Fig. 1B). […] The AF3 model of DBP116 − 131 peptide supports the interaction of D120 of the DBP116 − 131 peptide with the residues K74 and N71 in the MIT domain (Fig. 1G), emphasizing the significance of the aspartic acid at this position. […] Of them, two peptides (SYNE2_853 − 868 and PKNOX1_56 − 71) where placed in the same binding site as the Girdin and DBP peptides with high confidences by AF3 modelling (ipTM 0.92 and 0.74; Supplementary Fig. S3).
Four rounds of phage selections were carried out using the second generation human disorderome library or the constructed deep mutational scanning library. At least three individual replicates were used for each bait protein. 10 µg of GST-tagged proteins or GST control (diluted in PBS from the stock of proteins kept in the purification elution buffer) were immobilized in 100 µL PBS on a 96-well MaxiSorp (Nunc) plate overnight at 4 °C. The plates were incubated with blocking buffer (with 0.5% BSA in PBS) for 1 h at 4 °C followed by washing with 0.05% Tween 20 in PBS four times. The naïve phage library (10^11 CFU) was diluted in 1/5th volume PEG/NaCl (20% PEG-8000, 0.4 M NaCl) and 1X PBS, incubated on ice for 10 min and centrifuged at 10,000 [drawing 3] g for 10 min. The pellet was resuspended in the volume of PBS (100 µL/ well). […]

Substance | Percentage (%) normalized to highest intensity and corrected for background (USP8 Rhod domain) | also measured
AKPPGPGVLMIHPPG | -1.54% | 
AQPLTPGVLMVQPAA | -0.828% | 
AQPPAPGVLMAQPLT | -1.21% | 
AQPPTPGVLMVHPSA | -1.3% | 
ASQAVPTFLMATAAA | -0.581% | 
CGNQERKLEGSINDI | 11% | 
DPSAPPSLLLLLLAQ | 0.93% | 
DPVESRGLPGPEDDK | -0.521% | 
EINLQRNIAGKVVTP | -1.5% | 
FDQPHPQGLLPCQPQ | 4.4% | 
GKPPTPGVLMVHPPP | -1.22% | 
GMERVLGGLSSPLRLL [KIAA1614 Positive control] | 100% | 
GPSTSRILSGWEGPS | -0.117% | 
GVSCYRGLTGFGSRS | 52% | 
HAVSSPDPLLCSDVT | -0.0499% | 
HEFSSPSHLLRTPSS | 45% | 
HPNTPRGLSGWEGPS | 2.19% | 
IATYRRLLEGEEHRL | 5.44% | 

Substance | Percentage (%) normalized to highest intensity and corrected for background (USP8 Rhod domain) | also measured
MAQALPWLLLWMGAG | 1.42% | 
MPSGSRLRLVELGLGL [Random KIAA1614 Negative control] | 3.69% | 
PEKGARSLAGPPPHF | -1.37% | 
PGPPYPPQLMTPSKL | -0.836% | 
PIPSSSPPPLSSPL | -1.42% | 
PKPPRPASLLRHAPH | 5% | 
PRPTAPKPLLPRREE | 0.0399% | 
PVYSRPTVLMRAPPA | 4.31% | 
QPVYSSPRRLNCAE | 17% | 
RAB3IP82 − 95: SSPxxL containing peptide from the RAB3A interacting protein (QPVYSSPRRLNCAE) |  | SPOT intensity in words (USP8 Rhod domain): Weaker signals
RALLERCLKGEGEIE | 2% | 
SCISEWEQKIPTYN | 6% | 
SLASVRGLQGRSMSV | 5% | 
SLRRLGGFPGPPTLFS | 39% | 
SLRSLPHQLLLQRLQ | 7% | 
SLRSLPHQLLLQRLQ [SHANK3 peptide] |  | SPOT intensity in words (USP8 Rhod domain): Weaker signals
SQKELESYMMRAQQLL [SYNE2_853 − 868, Nesprin-2 peptide] |  | Percentage (%) normalized to highest intensity and corrected for background (USP8 MIT domain [1]; SPOT array, GST-tagged MIT 100 µM, overnight 4 °C, chemiluminescence, highest intensity = DNAJB6): -4%; Percentage (%) (USP8 MIT domain [1]; Supplementary Fig. 4B, normalized to the highest intensity and corrected for background): -4%; NGS counts (%) (USP8 MIT domain [2]; ProP-PD, human disorderome library, GST-tagged MIT bait, four rounds of selection, percent of NGS counts associated with each peptide, Fig. 1B): 0.43%; max_counts (USP8 MIT domain [2]; Total NGS counts): 21; Confidence (USP8 MIT domain [2]; calculated based on four metrics: overlapping peptides, replicated peptides, motif match, peptide counts): 2; Counts (USP8 MIT domain [2]; fraction of NGS counts for a selection): 0.0007925; Promiscuity (USP8 MIT domain [2]; number of baits selections where the peptide has been observed, calculated on the domain level): 1; Replicates (USP8 MIT domain [2]; number of screens against the bait protein in which the peptide has been found): 3; Specificity (USP8 MIT domain [2]; proportion for the current bait of the total NGS read counts of the peptide for all baits screened with this library): 1
